Read-outs that look alike come from different tables or passages of the source.
How the values were obtained:
Assay in all cases: biochemical
Set-up in all cases: Eurofins KinaseProfiler full panel at Km ATP, residual kinase activity (%) relative to DMSO
[1] = target: CDK18/cyclinY(h) (Homo sapiens, UniProt Q07002)
Method in brief: (§1)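 Two 10 µM single-concentration screens were run: a competition-binding screen, in which DNA-tagged kinase bound to immobilized ligands was quantified by qPCR, and a radiometric activity panel at Km ATP. Each is expressed as residual kinase activity (%).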

[2] = target: T1, CK1α(h) (Homo sapiens, UniProt P48729)
T1 construct: gene CSNK1A1
Method in brief: as §1

[3] = target: T2, CaMKIIα(h) (Homo sapiens, UniProt Q9UQM7)
T2 construct: gene CAMK2A
Method in brief: as §1

[4] = target: EphA5(h) (Homo sapiens, UniProt P54756)
Method in brief: as §1

[5] = target: GRK5(h) (Homo sapiens, UniProt P34947)
Method in brief: as §1

[6] = target: T3, PI3 Kinase (p110b/p85a)(h) (Homo sapiens, UniProt P42338)
T3 construct: gene PIK3CB
Method in brief: as §1

[7] = target: T4, PrKX(h) (Homo sapiens, UniProt P51817)
T4 sequence (P51817 1-358): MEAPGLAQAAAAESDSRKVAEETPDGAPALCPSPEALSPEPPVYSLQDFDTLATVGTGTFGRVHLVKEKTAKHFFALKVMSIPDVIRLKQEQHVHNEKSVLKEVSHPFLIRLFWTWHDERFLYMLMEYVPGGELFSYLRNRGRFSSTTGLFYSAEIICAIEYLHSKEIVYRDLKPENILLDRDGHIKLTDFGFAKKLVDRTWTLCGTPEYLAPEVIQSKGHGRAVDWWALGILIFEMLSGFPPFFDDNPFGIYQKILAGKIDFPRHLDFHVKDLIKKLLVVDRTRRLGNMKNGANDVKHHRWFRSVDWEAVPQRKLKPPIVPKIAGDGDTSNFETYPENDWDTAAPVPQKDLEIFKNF
Method in brief: as §1

[8] = target: T5, RIPK1(h) (Homo sapiens, UniProt Q13546)
T5 sequence (Q13546 1-671): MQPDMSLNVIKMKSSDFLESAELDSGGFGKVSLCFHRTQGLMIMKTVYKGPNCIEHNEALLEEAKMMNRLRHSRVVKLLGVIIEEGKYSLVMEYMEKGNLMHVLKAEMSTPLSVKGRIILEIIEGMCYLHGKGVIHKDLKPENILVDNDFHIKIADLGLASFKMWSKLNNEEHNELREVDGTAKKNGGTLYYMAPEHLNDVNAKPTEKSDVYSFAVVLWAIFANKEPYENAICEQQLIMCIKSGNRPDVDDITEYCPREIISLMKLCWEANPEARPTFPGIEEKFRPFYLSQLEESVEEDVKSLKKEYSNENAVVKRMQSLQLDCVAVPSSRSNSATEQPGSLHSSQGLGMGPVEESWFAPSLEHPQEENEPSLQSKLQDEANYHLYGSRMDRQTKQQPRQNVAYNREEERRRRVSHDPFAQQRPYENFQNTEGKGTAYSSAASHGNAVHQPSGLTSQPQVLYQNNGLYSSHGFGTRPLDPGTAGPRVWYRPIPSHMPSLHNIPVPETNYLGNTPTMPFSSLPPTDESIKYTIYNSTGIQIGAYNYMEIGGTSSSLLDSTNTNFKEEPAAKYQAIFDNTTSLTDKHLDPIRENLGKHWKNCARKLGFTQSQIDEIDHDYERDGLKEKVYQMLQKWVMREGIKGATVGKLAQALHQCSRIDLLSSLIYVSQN
Method in brief: as §1

[9] = target: T6, SAPK2a(h) (Homo sapiens, UniProt Q16539)
T6 construct: gene MAPK14
Method in brief: as §1

[10] = target: STK32A(h) (Homo sapiens, UniProt Q8WU08)
Method in brief: as §1

[11] = target: STK32B(h) (Homo sapiens, UniProt Q9NY57)
Method in brief: as §1

[12] = target: STK33(h) (Homo sapiens, UniProt Q9BYT3)
Method in brief: as §1

[13] = read-out: Residual activity (%) Spautin-1 5aa
[14] = read-out: Residual activity (%) 5as
[15] = read-out: Residual activity (%) 5at
[16] = read-out: Residual activity (%) 5ay

T3 sequence (P42338 whole entry): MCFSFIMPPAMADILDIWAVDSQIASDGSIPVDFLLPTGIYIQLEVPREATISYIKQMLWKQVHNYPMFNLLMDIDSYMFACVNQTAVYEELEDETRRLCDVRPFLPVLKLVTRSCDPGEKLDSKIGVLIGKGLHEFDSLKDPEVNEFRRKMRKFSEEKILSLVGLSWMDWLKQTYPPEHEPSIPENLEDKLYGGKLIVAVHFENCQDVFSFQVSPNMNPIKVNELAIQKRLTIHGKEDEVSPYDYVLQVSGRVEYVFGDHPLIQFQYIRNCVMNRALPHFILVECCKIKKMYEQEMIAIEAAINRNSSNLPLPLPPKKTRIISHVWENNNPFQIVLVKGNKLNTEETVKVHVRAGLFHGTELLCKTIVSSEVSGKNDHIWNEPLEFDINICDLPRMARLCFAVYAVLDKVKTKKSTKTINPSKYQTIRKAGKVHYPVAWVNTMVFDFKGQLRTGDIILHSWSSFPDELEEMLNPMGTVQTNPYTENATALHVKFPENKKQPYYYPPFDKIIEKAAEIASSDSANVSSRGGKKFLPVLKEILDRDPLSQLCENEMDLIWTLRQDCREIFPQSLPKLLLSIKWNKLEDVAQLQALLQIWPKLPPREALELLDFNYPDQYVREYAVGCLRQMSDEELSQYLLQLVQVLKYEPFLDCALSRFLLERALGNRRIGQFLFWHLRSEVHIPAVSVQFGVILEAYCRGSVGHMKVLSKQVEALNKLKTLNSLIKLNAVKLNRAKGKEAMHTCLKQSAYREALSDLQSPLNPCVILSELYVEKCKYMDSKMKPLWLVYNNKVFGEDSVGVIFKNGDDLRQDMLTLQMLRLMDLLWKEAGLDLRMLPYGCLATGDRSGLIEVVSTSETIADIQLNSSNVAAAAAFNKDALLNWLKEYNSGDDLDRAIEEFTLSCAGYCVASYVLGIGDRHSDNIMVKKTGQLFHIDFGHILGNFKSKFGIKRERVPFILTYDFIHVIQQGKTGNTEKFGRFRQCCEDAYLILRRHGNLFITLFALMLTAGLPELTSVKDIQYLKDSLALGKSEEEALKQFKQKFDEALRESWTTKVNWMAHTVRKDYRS
T3 sequence (P27986 whole entry partner): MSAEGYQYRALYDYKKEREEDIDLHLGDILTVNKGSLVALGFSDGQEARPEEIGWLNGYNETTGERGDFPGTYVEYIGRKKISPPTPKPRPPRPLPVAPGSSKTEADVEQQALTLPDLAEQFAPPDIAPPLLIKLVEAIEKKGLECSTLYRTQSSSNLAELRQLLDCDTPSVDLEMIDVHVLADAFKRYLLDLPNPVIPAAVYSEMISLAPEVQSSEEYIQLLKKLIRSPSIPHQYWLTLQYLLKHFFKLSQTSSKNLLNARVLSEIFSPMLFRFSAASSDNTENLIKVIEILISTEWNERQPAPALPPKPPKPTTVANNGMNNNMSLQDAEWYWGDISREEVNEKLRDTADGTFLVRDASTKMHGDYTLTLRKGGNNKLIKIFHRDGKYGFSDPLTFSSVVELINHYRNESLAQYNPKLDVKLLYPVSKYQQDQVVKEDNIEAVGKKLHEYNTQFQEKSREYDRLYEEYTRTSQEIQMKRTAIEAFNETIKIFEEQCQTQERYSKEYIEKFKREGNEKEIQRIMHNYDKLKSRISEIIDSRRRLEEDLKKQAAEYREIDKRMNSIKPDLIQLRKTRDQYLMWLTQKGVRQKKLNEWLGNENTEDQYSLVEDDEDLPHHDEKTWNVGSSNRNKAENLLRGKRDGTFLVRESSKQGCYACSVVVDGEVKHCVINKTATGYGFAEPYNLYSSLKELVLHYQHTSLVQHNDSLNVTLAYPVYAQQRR
Sequence of EphA5(h) (P54756 whole entry): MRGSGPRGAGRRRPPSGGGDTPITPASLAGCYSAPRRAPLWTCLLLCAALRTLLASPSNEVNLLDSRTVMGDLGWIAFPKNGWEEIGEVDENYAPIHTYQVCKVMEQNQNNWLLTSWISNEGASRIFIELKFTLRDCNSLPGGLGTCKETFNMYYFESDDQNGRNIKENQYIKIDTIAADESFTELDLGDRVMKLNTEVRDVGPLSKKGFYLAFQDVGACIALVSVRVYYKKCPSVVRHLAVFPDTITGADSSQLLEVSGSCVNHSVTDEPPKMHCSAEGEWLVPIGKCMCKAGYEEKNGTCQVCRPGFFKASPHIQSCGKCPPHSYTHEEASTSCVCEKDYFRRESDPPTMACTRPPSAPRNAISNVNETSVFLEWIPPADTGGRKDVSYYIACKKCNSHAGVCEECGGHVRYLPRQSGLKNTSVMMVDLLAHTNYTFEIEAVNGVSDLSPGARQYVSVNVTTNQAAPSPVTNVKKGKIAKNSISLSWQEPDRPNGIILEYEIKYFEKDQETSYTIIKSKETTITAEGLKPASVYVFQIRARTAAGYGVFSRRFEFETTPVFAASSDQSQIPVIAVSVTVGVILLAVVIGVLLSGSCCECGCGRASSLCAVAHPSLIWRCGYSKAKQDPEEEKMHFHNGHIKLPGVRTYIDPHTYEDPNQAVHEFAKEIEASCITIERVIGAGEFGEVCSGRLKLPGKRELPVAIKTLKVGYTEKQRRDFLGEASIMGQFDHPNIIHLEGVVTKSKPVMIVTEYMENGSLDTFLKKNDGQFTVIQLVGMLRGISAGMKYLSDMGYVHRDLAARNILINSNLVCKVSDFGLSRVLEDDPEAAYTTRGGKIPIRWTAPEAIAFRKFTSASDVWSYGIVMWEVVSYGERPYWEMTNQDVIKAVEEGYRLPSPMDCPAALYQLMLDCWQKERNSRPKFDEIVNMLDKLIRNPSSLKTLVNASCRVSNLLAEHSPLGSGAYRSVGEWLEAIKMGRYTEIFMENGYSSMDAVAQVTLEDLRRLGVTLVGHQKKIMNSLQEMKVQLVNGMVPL
T1 sequence (P48729 whole entry): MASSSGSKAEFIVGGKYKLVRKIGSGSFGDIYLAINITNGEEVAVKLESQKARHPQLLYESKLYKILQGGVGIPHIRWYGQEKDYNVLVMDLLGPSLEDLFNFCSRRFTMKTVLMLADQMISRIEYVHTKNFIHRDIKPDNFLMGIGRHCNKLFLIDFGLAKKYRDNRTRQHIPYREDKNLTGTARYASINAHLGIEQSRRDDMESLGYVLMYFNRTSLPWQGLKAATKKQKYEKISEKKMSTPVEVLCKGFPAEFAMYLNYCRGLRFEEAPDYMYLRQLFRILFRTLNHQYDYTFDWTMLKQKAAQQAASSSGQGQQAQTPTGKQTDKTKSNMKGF
T2 sequence (Q9UQM7 whole entry): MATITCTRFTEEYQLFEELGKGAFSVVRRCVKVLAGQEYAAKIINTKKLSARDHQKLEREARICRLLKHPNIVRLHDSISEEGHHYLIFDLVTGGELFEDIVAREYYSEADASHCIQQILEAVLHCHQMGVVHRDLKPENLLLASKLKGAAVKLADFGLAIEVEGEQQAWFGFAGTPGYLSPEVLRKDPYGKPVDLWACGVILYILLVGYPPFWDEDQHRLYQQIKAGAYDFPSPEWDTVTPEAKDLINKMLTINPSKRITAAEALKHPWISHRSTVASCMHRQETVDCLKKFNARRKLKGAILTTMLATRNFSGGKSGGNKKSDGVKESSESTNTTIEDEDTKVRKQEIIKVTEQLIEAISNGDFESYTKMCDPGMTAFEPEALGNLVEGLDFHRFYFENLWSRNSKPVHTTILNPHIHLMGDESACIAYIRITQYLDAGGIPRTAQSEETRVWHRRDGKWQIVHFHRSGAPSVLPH
Sequence of STK33(h) (Q9BYT3 whole entry): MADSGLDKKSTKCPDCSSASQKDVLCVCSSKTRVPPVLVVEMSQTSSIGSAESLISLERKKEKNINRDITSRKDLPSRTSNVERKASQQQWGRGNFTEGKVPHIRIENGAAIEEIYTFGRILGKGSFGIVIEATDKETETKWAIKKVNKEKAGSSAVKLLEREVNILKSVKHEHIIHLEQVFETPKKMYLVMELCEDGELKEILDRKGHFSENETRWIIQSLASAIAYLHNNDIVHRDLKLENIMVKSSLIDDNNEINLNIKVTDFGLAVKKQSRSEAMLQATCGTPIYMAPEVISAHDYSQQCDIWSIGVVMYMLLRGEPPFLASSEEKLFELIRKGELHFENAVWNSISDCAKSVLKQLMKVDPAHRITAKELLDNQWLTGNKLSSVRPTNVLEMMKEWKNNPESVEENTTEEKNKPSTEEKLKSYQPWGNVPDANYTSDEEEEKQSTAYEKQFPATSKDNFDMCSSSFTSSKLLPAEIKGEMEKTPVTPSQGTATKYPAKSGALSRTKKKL
Sequence of GRK5(h) (P34947 whole entry): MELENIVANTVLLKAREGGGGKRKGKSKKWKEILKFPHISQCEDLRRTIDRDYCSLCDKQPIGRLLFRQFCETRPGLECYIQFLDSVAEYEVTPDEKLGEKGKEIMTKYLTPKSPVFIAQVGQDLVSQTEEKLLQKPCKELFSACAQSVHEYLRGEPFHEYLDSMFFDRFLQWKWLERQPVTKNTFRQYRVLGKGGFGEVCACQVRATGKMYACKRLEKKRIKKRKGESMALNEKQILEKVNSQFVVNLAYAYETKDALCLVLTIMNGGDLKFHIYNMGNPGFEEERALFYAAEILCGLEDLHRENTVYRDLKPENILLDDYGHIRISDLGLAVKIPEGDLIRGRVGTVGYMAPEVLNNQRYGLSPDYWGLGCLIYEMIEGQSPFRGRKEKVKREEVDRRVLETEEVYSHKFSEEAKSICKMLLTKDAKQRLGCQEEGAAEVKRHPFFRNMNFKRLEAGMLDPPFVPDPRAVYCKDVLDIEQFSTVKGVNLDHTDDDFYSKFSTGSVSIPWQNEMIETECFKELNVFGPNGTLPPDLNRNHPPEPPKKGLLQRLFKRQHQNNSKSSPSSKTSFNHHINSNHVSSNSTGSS

In the case of `Fc1ccc(CNc2ncnc3ccc(F)cc23)cc1` [5aa, 6-Fluoro-N-(4-fluorobenzyl)-4-Quinazolinamine], the remaining activity at 10 µM [1, 13] is reported as 87%, the remaining activity at 10 µM [2, 13] is reported as 76% and the remaining activity at 10 µM [3, 13] is reported as 94%. The remaining activity at 10 µM [4, 13] was 90%, the remaining activity at 10 µM [5, 13] was 86% and the remaining activity at 10 µM [6, 13] was 102%. For the same compound, the remaining activity at 10 µM [7, 13] was 97%, the remaining activity at 10 µM [8, 13] was 86% and the remaining activity at 10 µM [9, 13] was 95%. It also gave a remaining activity at 10 µM [10, 13] of 95% and a remaining activity at 10 µM [11, 13] of 95%.
`Fc1ccc(CCNc2ncnc3ccc(F)cc23)cc1` [5as, 6-Fluoro-N-[2-(4-Fluorophenyl)Ethyl]-4-Quinazolinamine] showed a remaining activity at 10 µM [1, 14] of 102%, a remaining activity at 10 µM [2, 14] of 98% and a remaining activity at 10 µM [3, 14] of 88%. It also gave a remaining activity at 10 µM [4, 14] of 99%, a remaining activity at 10 µM [5, 14] of 95% and a remaining activity at 10 µM [6, 14] of 99%. For the same compound, the remaining activity at 10 µM [7, 14] was 97%, the remaining activity at 10 µM [8, 14] was 73% and the remaining activity at 10 µM [9, 14] was 98%. The remaining activity at 10 µM [10, 14] was 99%, the remaining activity at 10 µM [11, 14] was 92% and the remaining activity at 10 µM [12, 14] was 90%.
`Fc1ccc2ncnc(NCCc3ccc(Cl)cc3)c2c1` [5at, N-[2-(4-Chlorophenyl)Ethyl]-6-Fluoro-4-Quinazolinamine] was tested, and the remaining activity at 10 µM [1, 15] was 116%, the remaining activity at 10 µM [2, 15] was 89% and the remaining activity at 10 µM [3, 15] was 89%. It also gave a remaining activity at 10 µM [4, 15] of 87%, a remaining activity at 10 µM [5, 15] of 96% and a remaining activity at 10 µM [6, 15] of 93%. It also gave a remaining activity at 10 µM [7, 15] of 112%, a remaining activity at 10 µM [8, 15] of 80% and a remaining activity at 10 µM [9, 15] of 88%. For the same compound, the remaining activity at 10 µM [10, 15] was 100%, the remaining activity at 10 µM [11, 15] was 97% and the remaining activity at 10 µM [12, 15] was 100%.
Work on `COc1ccc2ncnc(Nc3cccc(F)c3)c2c1` [5ay, N-(3-Fluorophenyl)-6-Methoxy-4-Quinazolinamine] yielded a remaining activity at 10 µM [1, 16] of 86%, a remaining activity at 10 µM [2, 16] of 100% and a remaining activity at 10 µM [3, 16] of 58%. It also gave a remaining activity at 10 µM [4, 16] of 95%, a remaining activity at 10 µM [5, 16] of 89% and a remaining activity at 10 µM [6, 16] of 103%. For the same compound, the remaining activity at 10 µM [7, 16] was 93%, the remaining activity at 10 µM [8, 16] was 78% and the remaining activity at 10 µM [9, 16] was 99%. For the same compound, the remaining activity at 10 µM [10, 16] was 103%, the remaining activity at 10 µM [11, 16] was 93% and the remaining activity at 10 µM [12, 16] was 77%.

Source: paper PMC7827406, “Structure–Activity Relationship (SAR) Study of Spautin-1 to Entail the Discovery of Novel NEK4 Inhibitors” (International Journal of Molecular Sciences, 2021)
